Source: US6337411B2, “Stromelysin inhibitors” (Aventis Pharma Deutschland GmbH, priority 1999, dated 2002)
pIC50: −log10 of the molar value.

Tests used:
[1] = target: T1, catalytic domain of human stromelysin (MMP-3) (Homo sapiens, UniProt P08254); test: Enzymatic activity of the catalytic domain of human stromelysin (fluorogenic substrate); assay type: biochemical; details: inhibitor concentration giving 50% inhibition of the enzyme; pH 6.5 buffer; 15 minutes preincubation; fluorescence 328 nm (ex)/393 nm (em)
T1 construct: enzymatic activity of the catalytic domain of human stromelysin; made in house
Description: Preparation and determination of the enzymatic activity of the catalytic domain of human stromelysin
The enzyme stromelysin (MMP-3) was prepared according to Ye et al. (Biochemistry; 31 (1992) pages 11231-11235). For the measurement of the enzyme activity or of the enzyme inhibitor action, 70 μl of buffer solution and 10 μl of enzyme solution were incubated for 15 minutes with 10 μl of a 10% strength (v/v) aqueous dimethyl sulfoxide solution, which optionally contained the enzyme inhibitor. After addition of 10 μl of a 10% strength (v/v) aqueous dimethyl sulfoxide solution which contained I mmol/l of the substrate, the enzyme reaction was monitored by fluorescence spectroscopy (328 nm (ex)/393 nm (em)). The enzyme activity is shown as the extinction increase/minute. The IC50 value was determined as that inhibitor concentration which in each case led to a 50% inhibition of the enzyme.
The buffer solution contained 0.05% Brij (Sigma, Deisenhofen, Germany) and 0.1 mol/l of tris/HCl, 0.1 mol/l of NaCl, 0.01 mol/l of CaCl2 and 0.1 mol/l of piperazine-N,N′-bis[2-ethanesulfonic acid] (pH=6.5).
The enzyme solution contained 5 μg/ml of an enzyme domain prepared according to Ye et al. The substrate solution contained 1 mmol/l of the fluorogenic substrate (7-methoxycoumarin-4-yl)acetyl-Pro-Leu-Gly-Leu-3-(2′,4′-dinitrophenyl)-L-2,3-diaminopropionyl-Ala-Arg-NH2 (Bachem, Heidelberg, Germany).

[2] = Solubility of isolated stromemycin (properties); assay type: physicochemical; details: solvents methanol, DMSO
Source text: (§1) The stromemycin obtained has the following properties: […]

[3] = Stability of isolated stromemycin in solution (properties); assay type: physicochemical; details: neutral medium vs strongly acidic and alkaline solution
Source text: as §1

T1 sequence (P08254 100-272 limits assumed): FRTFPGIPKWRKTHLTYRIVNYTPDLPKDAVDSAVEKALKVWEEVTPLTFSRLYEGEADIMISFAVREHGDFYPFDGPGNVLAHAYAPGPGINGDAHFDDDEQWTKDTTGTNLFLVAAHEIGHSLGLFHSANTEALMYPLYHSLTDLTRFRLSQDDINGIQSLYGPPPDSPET

- pIC50 [1]: 3.94
SMILES: CCCC=CC=CCCc1cc(OC(=O)c2c(CCC=CC=CCCC)cc(O)c(C3OC(CO)C(O)C(O)C3O)c2O)cc(O)c1C(=O)O (stereo not drawn) [stromemycin]
- Solubility [2]: soluble in methanol, dimethyl sulfoxide (DMSO)
- Stability [3]: stable in neutral medium, but unstable in strongly acidic and alkaline solution
